# Measurements published in US20090280511A1, “Methods for selecting candidate peptides presented on the surface of cancer cells following their binding to MHC class I molecules” (priority 2008, published 2009).
# Residues, ends and D or L forms follow the SMILES beside them. *: point of attachment. Cbz = O=C(OCc1ccccc1)*
# Assays:
# Format in all cases: cell-based, mouse
# DC2.4 cells [1] = experiment: H-2Kb/pOV8 presentation after introducing proteins from outside into the cytosol with Chariot
# Source text: The presentation of H-2Kb/pOV8 was examined when pOV8-YFP and YFP-pOV8 were introduced directly from the outside into the cytosol of DC2.4 cells.
# Chariot was used as a reagent for forcibly making the cell membrane permeable to proteins in solution. It was again examined whether the presentation of pOV8 to H-2Kb was improved by fusion of pOV8 to the N-terminus of YFP as compared to fusion to the C-terminus. The cells were heated in the presence of any of YFP, pOV8-YFP, and YFP-pOV8, and the cell membrane permeabilizing agent Chariot. After washing the cells, a whole cell extract was prepared. After SDS-PAGE, Western blotting was performed using anti-YFP antibody (inset of FIG. 5). In addition, the expression of H-2Kb/pOV8 in these cells was measured using the 25D1.16 antibody.
# DC2.4 cells [2] = experiment: Effect of inhibitors on H-2Kb/pOV8 expression after acid wash
# Protocol: The DC2.4 cells were washed with acid 12 hours after transfection as in FIG. 3. The inhibitors were added at 0 hours (time 0). After 6 hours, the cells were recovered and examined.
# The effect of various inhibitors on H-2Kb/pOV8 expression was examined. […] DC2.4 cells were transfected with DNA and after two hours, excess DNA was removed and the cells were further incubated for 12 hours. The cells were washed with acid and the indicated inhibitor was added at the same time. After six hours, H-2Kb/pOV8 expression was measured using 25D1.16 antibody.
# Other inhibitors were examined as in the experiment described in [8] above.
# The same system in [8] above was used to examine the effect of non-natural amino acids such as canavanine or azetidine. It is known that proteins incorporating non-natural amino acids are easily degraded since they fail to fold properly.
# DC2.4 cells [3] = experiment: H-2Kb/pOV8 expression with or without IFNγ treatment, 25D1.16 antibody; settings: DC2.4 cells expressing pOV8-YFP or YFP-pOV8
# Source text: First, DC2.4 cells expressing pOV8-YFP and YFP-pOV8 were respectively treated with IFNγ and analyzed for H-2Kb/pOV8 expression using the 25D1.16 antibody.
# Cellular IFNγ treatment causes an increase in class I antigen expression, and the enormous immunological significance of this phenomenon has been elucidated. The principle of N-terminal epitope dominance should play a significant role in direct antigen presentation in the living body, since it brings about an expression difference similar to that which results from the presence or absence of IFNγ treatment.
# In the table, the term “whole” means the sum of H-2Kb/pOV8 expression for all cells expressing YFP. The term “at 10^2 fluorescent units” means H-2Kb/pOV8 expression for cells expressing 10^2 fluorescent units of YFP.
Compound,effect of inhibitor on H-2Kb/pOV8 expression (presentation) (DC2.4 cells [2]),further results
CC(C)C[C@@H](C=O)NC(=O)[C@H](CC(C)C)NC(=O)[C@H](CC(C)C)NC(=O)OCc1ccccc1 [MG132] (Cbz-Leu-Leu-Leu-aldehyde),–,effect on antigen presentation of OVA administered with Chariot (DC2.4 cells [1]; OVA plus Chariot): reduced antigen presentation
COc1ccc(C[C@H]2NC[C@H](O)[C@H]2OC(C)=O)cc1 [anisomycin],inhibited,–
C1CNC1 [azetidine],no effect on antigen presentation,–
N=C(N)NOCC[C@H](N)C(=O)O [canavanine],no variation,–
CCN(CC)CCCC(C)Nc1ccnc2cc(Cl)ccc12 (centres unmarked) [chloroquine],not inhibited,–
IFNγ: cytokine used to treat cells; known to increase MHC class I antigen expression,–,effect of IFNγ treatment on H-2Kb/pOV8 expression (DC2.4 cells [3]): increased
OVA: full-length OVA antigen protein containing the pOV8 epitope,–,presentation of H-2Kb/pOV8 (DC2.4 cells [1]; protein administered to cells in the presence of Chariot): slight presentation of H-2Kb/pOV8 was observed
a-amanitin,Recovery in H-2Kb/pOV8 expression was not observed,–
